From US20250009742A1 (priority 2021, published 2025)
pIC50: −log10 of the molar value.

What was measured:
[1] = Cell viability assay (EZ-Cytox), cytotoxicity; type: cell-based; settings: human, HepAD38 cells; for viability at 65 h, 100 µM: read-out: Cytotoxicity % Livability (@100 μM)
Experimental: HepAD38 cells were cultured for 2 days in Dulbecco's Modified Eagle's medium (Welgene, LM001-05) supplemented with 10% FBS without tetracycline. […] After 65 hours of treatment, viability was measured using EZ-Cytox cell viability assay kit (Daeil Lab Service) according to the manufacturer's instructions. The absorbance was measured at 450 nm using a spectrophotometer (Spark, Tecan).

intracellular HBV DNA = assay: Real-time PCR for intracellular HBV DNA in HepAD38 cells; type: cell-based; settings: Hepatitis B virus, HePAD38, 65 h, 65 hours treatment

For `COc1ncc(N(Cc2n[nH]c(C(F)(F)F)c2C(C)(C)O)C(=O)Nc2ccc(F)c(Cl)c2)cn1` [Example 102, 3-(3-chloro-4-fluorophenyl)-1-((4-(2-hydroxypropan-2-yl)-5-(trifluoromethyl)-1H-pyrazol-3-yl)methyl)-1-(2-methoxypyrimidin-5-yl)urea], the CC50 at 65 h [1] was over 66 µM, the viability at 65 h, 100 µM [1] was 3.8% and the pIC50 (intracellular HBV DNA) was under 5.96.

`COC12CC(N(Cc3cc(C(F)(F)F)[nH]n3)C(=O)Nc3ccc(F)c(Cl)c3)(C1)C2` [Example 105, 3-(3-chloro-4-fluorophenyl)-1-(3-methoxybicyclo[1.1.1]pentan-1-yl)-1-((5-(trifluoromethyl)-1H-pyrazol-3-yl)methyl)urea] gave a CC50 at 65 h [1] of 55.8 µM, a viability at 65 h, 100 µM [1] of 3.5% and a pIC50 (intracellular HBV DNA) of 7.47.

`CC(C)(O)c1cc(N(Cc2n[nH]c3c2CCCO3)C(=O)Nc2ccc(F)c(Cl)c2)on1` [Example 109, 3-(3-chloro-4-fluorophenyl)-1-(3-(2-hydroxypropan-2-yl)isoxazol-5-yl)-1-((1,4,5,6-tetrahydropyrano[2,3-c]pyrazol-3-yl)methyl)urea] showed a CC50 at 65 h [1] of over 100 µM, a viability at 65 h, 100 µM [1] of 82% and a pIC50 (intracellular HBV DNA) of 6.82.

For `CC(C)(O)c1ccc(N(Cc2n[nH]c3c2CCCO3)C(=O)Nc2ccc(F)c(Cl)c2)cn1` [Example 110, 3-(3-chloro-4-fluorophenyl)-1-(6-(2-hydroxypropan-2-yl)pyridin-3-yl)-1-((1,4,5,6-tetrahydropyrano[2,3-c]pyrazol-3-yl)methyl)urea], the CC50 at 65 h [1] was over 100 µM and the pIC50 (intracellular HBV DNA) was under 5.96.

`CC(C)(O)c1ccc(N(Cc2n[nH]c3c2CCOC3)C(=O)Nc2ccc(F)c(Cl)c2)cn1` [Example 111, 3-(3-chloro-4-fluorophenyl)-1-(6-(2-hydroxypropan-2-yl)pyridin-3-yl)-1-((1,4,5,7-tetrahydropyrano[3,4-c]pyrazol-3-yl)methyl)urea] gave a CC50 at 65 h [1] of over 100 µM and a pIC50 (intracellular HBV DNA) of under 5.96.

In the case of `CC(C)(O)c1cc(N(Cc2n[nH]c3c2CCOC3)C(=O)Nc2ccc(F)c(Cl)c2)ccn1` [Example 112, 3-(3-chloro-4-fluorophenyl)-1-(2-(2-hydroxypropan-2-yl)pyridin-4-yl)-1-((1,4,5,7-tetrahydropyrano[3,4-c]pyrazol-3-yl)methyl)urea], the CC50 at 65 h [1] was over 66 µM and the pIC50 (intracellular HBV DNA) was under 5.96.

With `CC(C)(O)c1cc(N(Cc2n[nH]c3c2CCCO3)C(=O)Nc2ccc(F)c(Cl)c2)ccn1` [Example 113, 3-(3-chloro-4-fluorophenyl)-1-(2-(2-hydroxypropan-2-yl)pyridin-4-yl)-1-((1,4,5,6-tetrahydropyrano[2,3-c]pyrazol-3-yl)methyl)urea] the CC50 at 65 h [1] was over 100 µM, the viability at 65 h, 100 µM [1] was 102% and the pIC50 (intracellular HBV DNA) was under 5.96.

With `CC(C)(O)c1cc(N(Cc2n[nH]c3c2CCOC3)C(=O)Nc2ccc(F)c(Cl)c2)on1` [Example 115, 3-(3-chloro-4-fluorophenyl)-1-(3-(2-hydroxypropan-2-yl)isoxazol-5-yl)-1-((1,4,5,7-tetrahydropyrano[3,4-c]pyrazol-3-yl)methyl)urea] the CC50 at 65 h [1] was over 100 µM, the viability at 65 h, 100 µM [1] was 84.1% and the pIC50 (intracellular HBV DNA) was under 5.96.

`COc1cc(N(Cc2cc(C(F)(F)F)[nH]n2)C(=O)Nc2ccc(F)c(Cl)c2)cnc1C#N` [Example 118, 3-(3-chloro-4-fluorophenyl)-1-(6-cyano-5-methoxypyridin-3-yl)-1-((5-(trifluoromethyl)-1H-pyrazol-3-yl)methyl)urea] showed a CC50 at 65 h [1] of under 50 µM, a viability at 65 h, 100 µM [1] of 31.3% and a pIC50 (intracellular HBV DNA) of under 5.96.

`COc1ncc(N(Cc2cc(C(F)(F)F)[nH]n2)C(=O)Nc2ccc(F)c(Cl)c2)cc1C#N` [Example 119, 3-(3-chloro-4-fluorophenyl)-1-(5-cyano-6-methoxypyridin-3-yl)-1-((5-(trifluoromethyl)-1H-pyrazol-3-yl)methyl)urea] showed a CC50 at 65 h [1] of under 50 µM, a viability at 65 h, 100 µM [1] of 18.8% and a pIC50 (intracellular HBV DNA) of 6.49.

Compound `N#Cc1cncc(N(Cc2n[nH]c3c2CCCO3)C(=O)Nc2ccc(F)c(Cl)c2)c1` [Example 120, 3-(3-chloro-4-fluorophenyl)-1-(5-cyanopyridin-3-yl)-1-((1,4,5,6-tetrahydropyrano[2,3-c]pyrazol-3-yl)methyl)urea] has a CC50 at 65 h [1] of over 100 µM, a viability at 65 h, 100 µM [1] of 92% and a pIC50 (intracellular HBV DNA) of 7.02.

For `N#Cc1cc(N(Cc2n[nH]c3c2CCCO3)C(=O)Nc2ccc(F)c(Cl)c2)ccn1` [Example 122, 3-(3-chloro-4-fluorophenyl)-1-(2-cyanopyridin-4-yl)-1-((1,4,5,6-tetrahydropyrano[2,3-c]pyrazol-3-yl)methyl)urea], the CC50 at 65 h [1] was over 100 µM and the pIC50 (intracellular HBV DNA) was 6.46.

For `N#Cc1ccc(N(Cc2n[nH]c3c2COCC3)C(=O)Nc2ccc(F)c(Cl)c2)cn1` [Example 125, 3-(3-chloro-4-fluorophenyl)-1-(6-cyanopyridin-3-yl)-1-((1,4,6,7-tetrahydropyrano[4,3-c]pyrazol-3-yl)methyl)urea], the CC50 at 65 h [1] was over 100 µM, the viability at 65 h, 100 µM [1] was 109% and the pIC50 (intracellular HBV DNA) was 6.64.

In the case of `N#Cc1ccc(N(Cc2n[nH]c3c2CCOC3)C(=O)Nc2ccc(F)c(Cl)c2)cn1` [Example 127, 3-(3-chloro-4-fluorophenyl)-1-(6-cyanopyridin-3-yl)-1-((1,4,5,7-tetrahydropyrano[3,4-c]pyrazol-3-yl)methyl)urea], the CC50 at 65 h [1] was over 100 µM, the viability at 65 h, 100 µM [1] was 95% and the pIC50 (intracellular HBV DNA) was 6.29.

For `N#Cc1cc(N(Cc2n[nH]c3c2CCOC3)C(=O)Nc2ccc(F)c(Cl)c2)ccn1` [Example 128, 3-(3-chloro-4-fluorophenyl)-1-(2-cyanopyridin-4-yl)-1-((1,4,5,7-tetrahydropyrano[3,4-c]pyrazol-3-yl)methyl)urea], the CC50 at 65 h [1] was over 100 µM, the viability at 65 h, 100 µM [1] was 65.9% and the pIC50 (intracellular HBV DNA) was 6.47.

In the case of `N#Cc1cncc(N(Cc2n[nH]c3c2COCC3)C(=O)Nc2ccc(F)c(Cl)c2)c1` [Example 129, 3-(3-chloro-4-fluorophenyl)-1-(5-cyanopyridin-3-yl)-1-((1,4,6,7-tetrahydropyrano[4,3-c]pyrazol-3-yl)methyl)urea], the CC50 at 65 h [1] was over 100 µM, the viability at 65 h, 100 µM [1] was 93.1% and the pIC50 (intracellular HBV DNA) was 7.22.

Compound `N#Cc1ccc(N(Cc2cc(C(F)(F)F)[nH]n2)C(=O)Nc2ccc(F)c(Cl)c2)cn1` [Example 130, 3-(3-chloro-4-fluorophenyl)-1-(6-cyanopyridin-3-yl)-1-((5-(trifluoromethyl)-1H-pyrazol-3-yl)methyl)urea] has a CC50 at 65 h [1] of over 100 µM, a viability at 65 h, 100 µM [1] of 68% and a pIC50 (intracellular HBV DNA) of 7.19.

For `O=C(Nc1ccc(F)c(Cl)c1)N(Cc1n[nH]c2c1CCCO2)c1cc[nH]n1` [Example 135, 3-(3-chloro-4-fluorophenyl)-1-(1H-pyrazol-3-yl)-1-((1,4,5,6-tetrahydropyrano[2,3-c]pyrazol-3-yl)methyl)urea], the CC50 at 65 h [1] was over 100 µM and the pIC50 (intracellular HBV DNA) was 6.70.

`O=C(Nc1ccc(F)c(Cl)c1)N(Cc1n[nH]c2c1CCCO2)c1ccon1` [Example 136, 3-(3-chloro-4-fluorophenyl)-1-(isoxazol-3-yl)-1-((1,4,5,6-tetrahydropyrano[2,3-c]pyrazol-3-yl)methyl)urea] gave a CC50 at 65 h [1] of 64 µM, a viability at 65 h, 100 µM [1] of 7.3% and a pIC50 (intracellular HBV DNA) of 7.32.

`COc1ncc(N(Cc2cc(C(F)(F)F)[nH]n2)C(=O)Nc2cc(N(C)C)c(F)c(Cl)n2)cn1` [Example 138, 3-(6-chloro-4-(dimethylamino)-5-fluoropyridin-2-yl)-1-(2-methoxypyrimidin-5-yl)-1-((5-(trifluoromethyl)-1H-pyrazol-3-yl)methyl)urea] showed a CC50 at 65 h [1] of over 100 µM, a viability at 65 h, 100 µM [1] of 71.9% and a pIC50 (intracellular HBV DNA) of under 5.96.
